Data from patent publication US20230150978A1, “QUINAZOLINONE DERIVATIVES AND USES THEREOF FOR TREATING A CANCER” (ENYO PHARMA, priority 2020, published 2023).
Like-named read-outs stand apart in the source and are kept apart here.

Legend:
[1] = tested on: Calreticulin; test: Calreticulin release (ER to plasma membrane translocation) screen, Nano-Glo HiBiT extracellular detection; type: cell-based; settings: extracellular luminescence, read-out: CalR EC50
Description: (§1) Construction of pBiT3.1-Calreticulin Plasmid Calreticulin derived from pCMV6-AC plasmid (ref. SC320287, Origene) was amplified by PCR using the following set of primers: Seq ID No 3: forward, 5′-[…]-3′; Seq ID No 4: reverse, 5′-[…]-3′. The PCR fragment was subsequently digested by EcoRI and XhoI (R3101S and R0146S respectively, New England Biolabs) and inserted between the EcoRI and XhoI sites in the plasmid pBiT3.1-C(ref. N237A, Promega). The resulting plasmid (pBiT3.1-Calreticulin) was grown in NEB10-beta competent E. coli (ref. C3019I, New England Biolabs) and purified using the NucleoBond Xtra Midi Kit (ref. 740410, Macherey-Nagel).
Construction of Calreticulin Reporter Cell Line
(§2) pBiT3.1-Calreticulin was transfected in MDA-MB-231 cells (ref. ATCC HTB-2) using Lipofectamine 2000 reagent (ref. 11668, Invitrogen). Transfected cells were selected for blasticidin resistance (15 μg/ml, ref. Al 113903 Gibco) in medium containing DMEM 1× (ref. 1995065, Gibco) with 1% penicillin and streptomycin, and 10% fetal bovine serum.
Screen for Calreticulin-ER to Plasma Membrane Translocating Drugs
(§3) MDA-MB-231 cells stably expressing Calreticulin-HiBiT (10^4 cells/well) were seeded into white 96-well plates (ref.3917, Corning) and allowed to recover for 24h. […] Mitoxantrone dihydrochloride (ref. M6545, Sigma-Aldrich) was used as a positive control. Extracellular translocation of Calreticulin was measured using the Nano-Glo HiBiT extracellular detection system (ref. N2422, Promega). Nano-Glo HiBiT Extracellular Reagent was prepared in advance, added to the well and incubated 10 min.
Luminescence of the extracellular Calreticulin-HiBiT was quantified using the Spark 20M spectrofluorimeter (TECAN).

[2] = tested on: HMGB1; test: HMGB1 release screen, Nano-Glo HiBiT extracellular detection; type: cell-based; settings: extracellular luminescence
Description: Construction of pBiT3.1-HMGB1 Plasmid
as §1, with “HMGB1” for “Construction of pBiT3.1-Calreticulin Plasmid Calreticulin”, “pCMV6-AC-GFP” for “pCMV6-AC”, “RG205918,” for “SC320287,”, “1:” for “3:”, “2:” for “4:”, “(pBiT3.1-HMGB1)” for “(pBiT3.1-Calreticulin)”
Construction of HMGB1 Reporter Cell Line
as §2, with “pBiT3.1-HMGB1” for “pBiT3.1-Calreticulin”
Screen for HMGB1-Releasing Drugs
as §3, with “HMGB1-HiBiT” for “Calreticulin-HiBiT”, “HMGB1” for “Calreticulin”, “min. Luminescence of the extracellular HMGB1-HiBiT was quantified using the Spark 20M spectrofluorimeter (TECAN)” for “min.”

[3] = Homo sapiens, MDA-MB-231, MDA-MB-231 cells stably expressing Calreticulin-HiBiT
[4] = Homo sapiens, MDA-MB-231, MDA-MB-231 cells stably expressing HMGB1-HiBiT

SMILES	EC50 [1, 3] [µM]	EC50 [2, 4] [µM]	EC50 ([1]; MDA-MB-231 cells stably expressing Calreticulin-HiBiT) [µM]	EC50 ([2]; MDA-MB-231 cells stably expressing HMGB1-HiBiT) [µM]
CN1CCN(Cc2nc3ccc(Cl)cc3c(=O)[nH]2)c2ccccc21 [Ex. #128, 6-chloro-2-[(4-methyl-2,3-dihydroquinoxalin-1-yl)methyl]-3H-quinazolin-4-one]	10.5	13.3	–	–
O=c1[nH]c(CN2CCc3ccccc32)nc2ccc(C3CC3)cc12 [Ex. #99, 6-cyclopropyl-2-(indolin-1-ylmethyl)-3H-quinazolin-4-one]	0.0975	0.0975	–	–
O=c1[nH]c(CN2CCCc3ccccc32)nc2ccc(Cl)cc12 [Ex. #51, 6-chloro-2-(3,4-dihydro-2H-quinolin-1-ylmethyl)-3H-quinazolin-4-one]	10.3	11.8	–	–
Cc1cccc2c1N(Cc1nc3ccc(Cl)cc3c(=O)[nH]1)CC2 [Ex. #44, 6-chloro-2-[(7-methylindolin-1-yl)methyl]-3H-quinazolin-4-one]	1.26	1.33	–	–
Cc1ccc2c(c1)N(Cc1nc3ccc(Cl)cc3c(=O)[nH]1)CCC2 [Ex. #127, 6-chloro-2-[(7-methyl-3,4-dihydro-2H-quinolin-1-yl)methyl]-3H-quinazolin-4-one]	6.96	13.4	–	–
COc1ccc2nc(CN3CCc4c(Br)cccc4C3)[nH]c(=O)c2c1 [Ex. #18, 2-[(5-bromo-3,4-dihydro-1H-isoquinolin-2-yl)methyl]-6-methoxy-3H-quinazolin-4-one]	2.06	9.36	–	–
COc1ccc2c(=O)[nH]c(CN3CCc4ccccc43)nc2c1 [Ex. #86, 2-(indolin-1-ylmethyl)-7-methoxy-3H-quinazolin-4-one]	2.56	3.86	–	–
CC1CN(Cc2nc3ccc(Cl)cc3c(=O)[nH]2)c2ccccc21 (single isomer, unassigned) [Ex. #39, 6-chloro-2-[(3-methylindolin-1-yl)methyl]-3H-quinazolin-4-one]	–	–	8.06	10.4
CN(C)c1ccc2nc(CN3CCc4ccccc43)[nH]c(=O)c2c1 [Ex. #73, 6-(dimethylamino)-2-(indolin-1-ylmethyl)-3H-quinazolin-4-one]	0.253	0.275	–	–
COCC1CCN(c2ccc3nc(CN4CCc5ccccc54)[nH]c(=O)c3c2)C1 (stereo not shown) [Ex. #103, 2-(indolin-1-ylmethyl)-6-[3-(methoxymethyl)pyrrolidin-1-yl]-3H-quinazolin-4-one]	0.518	0.858	–	–
Cc1ccc2nc(CN3CCc4ccccc43)[nH]c(=O)c2c1 [Ex. #84, 2-(indolin-1-ylmethyl)-6-methyl-3H-quinazolin-4-one]	0.695	2.63	–	–
CN1CCCN(Cc2nc3ccc(Cl)cc3c(=O)[nH]2)c2ccccc21 [Ex. #63, 6-chloro-2-[(1-methyl-3,4-dihydro-2H-1,5-benzodiazepin-5-yl)methyl]-3H-quinazolin-4-one]	3.86	4.26	–	–
O=c1[nH]c(CN2CCc3ccccc32)nc2ccc(Cl)cc12 [Ex. #36, 6-chloro-2-(indolin-1-ylmethyl)-3H-quinazolin-4-one]	1.8	1.01	–	–
O=c1[nH]c(CN2CCc3ccccc3C2)nc2ccc(Cl)cc12 [Ex. #59, 6-chloro-2-(3,4-dihydro-1H-isoquinolin-2-ylmethyl)-3H-quinazolin-4-one]	4.41	7.51	–	–
COc1cccc2c1N(Cc1nc3ccc(Cl)cc3c(=O)[nH]1)CC2 [Ex. #49, 6-chloro-2-[(7-methoxyindolin-1-yl)methyl]-3H-quinazolin-4-one]	7.56	11.2	–	–
COc1ccc2nc(CN3CCc4c(Cl)cccc4C3)[nH]c(=O)c2c1 [Ex. #20, 2-[(5-chloro-3,4-dihydro-1H-isoquinolin-2-yl)methyl]-6-methoxy-3H-quinazolin-4-one]	4.26	10.8	–	–
O=c1[nH]c(CN2CCc3ccccc32)nc2ccc(N3CCCC3)cc12 [Ex. #102, 2-(indolin-1-ylmethyl)-6-pyrrolidin-1-yl-3H-quinazolin-4-one]	0.595	1.37	–	–
